In US20240122899A1, “COMPOSITION FOR STIMULATING IMMUNE CELL METABOLISM” (SUNTORY HOLDINGS LIMITED, priority 2021, published 2024):

Experiments:
[1] = mice orally administered, versus mice not administered; cited from earlier work
[2] = tested on: IL-6, IL-12, IL-1β, and IL-10; conditions: absence of the TLR ligand; ergothioneine concentration 0 or 10 mM; cited from earlier work
[3] = tested on: human peripheral blood mononuclear cells (PBMCs); assay: Mitochondrial stress test / oxygen consumption rate (XFe96 flux analyzer) in human PBMCs; assay type: cell-based; conditions: final concentration of 10 μM, 30 μM, or 100 μM
Description: The effect of the compound (L-ergothioneine) of the present invention on mitochondrial function was analyzed. Ergothioneine was added to human peripheral blood mononuclear cells (PBMCs) under the following conditions. The extracellular oxygen level and pH were measured in real time using an XFe96 flux analyzer (available from Agilent Technologies). XFe technology uses solid-state sensors to simultaneously measure both oxygen consumption rate (OCR) and extracellular acidification rate (ECAR) to determine effects on oxidative phosphorylation (OXPHOS) and glycolysis simultaneously. […] Then, the cells were sequentially exposed to various mitochondrial function inhibitors to evaluate cell metabolism. (Conditions for adding ergothioneine to human PBMCs) Human PBMCs were kept in an XF assay medium (XF RPMI1640 medium). Here, L-ergothioneine was adjusted to a final concentration of 0, 10, 30, or 100 μM. The cells (30,000 cells/50 μL/well) were seeded onto an XF96-well cell culture plate coated with PDL and were centrifuged at 200 g for one minute so that the cells were adhered to the plate. After culturing at 37° C. in the absence of CO2 for 20 minutes, the XF assay medium (130 μL) was added gently, followed by further culturing at 37° C. in the absence of CO2 for 40 minutes. The following mitochondrial stress test was performed on the obtained human PBMCs to which ergothioneine was added. An XF Mit Stress Kit (available from Agilent Technologies) was used for the experiment. […] The results obtained are shown in FIG. 1A (basal respiration), FIG. 1B (ATP production), and FIG. 1C (maximum respiration) to facilitate understanding of a possible mechanism of mitochondria metabolism. […] FIGS. 1A to 1C show the resulting values expressed as mean±standard deviation. A significance test was performed by Dunnett's test (test by multiple comparison assuming equal variance, p-value) using an Excel analysis tool to obtain test results relative to the final concentration (0 μM) of ergothioneine (*: p<0.05, **: p<0.01).

SMILES: C[N+](C)(C)[C@@H](Cc1c[nH]c(=S)[nH]1)C(=O)[O-] [ergothioneine, L-ergothioneine]
- peritesticular fat weight [1]: lower
- triglyceride (neutral fat) level in plasma [1]: lower
- detection of IL-6, IL-12, IL-1β, and IL-10 [2]: none of IL-6, IL-12, IL-1β, and IL-10 was detected
- oxygen consumption rate (OCR) of human PBMCs over time ([3]; FIG. 2): increase
- OCR related to basal respiration (mitochondrial basal respiration) ([3]; relative to 0 μM, FIG. 1A): significant increase
- OCR related to ATP-related respiration (mitochondrial ATP production) ([3]; relative to 0 μM, FIG. 1B): significant increase
- OCR related to maximum respiration (mitochondrial maximum respiration) ([3]; relative to 0 μM, FIG. 1C): significant increase
